Patent US20200404909A1, “Fatty acid derivatives for use as herbicides” (Clariant International Ltd., priority 2018, published 2020)

How the values were obtained:
[1] = Volatility from spray deposit on inert wettable synthetic substrates; type: physicochemical; conditions: pelargonic acid 30 g/L, Vorox 130 g/L
Protocol: (§1) The volatility of the test substances from the spray deposit was measured time dependent. All measurements have been carried out using a concentration of 50 g/L of the test substances in the application solution. The reference pelargonic acid was used at a concentration of 30 g/L and the commercial benchmark Vorox was applied at a concentration of 130 g/L. The […] drop volumes of 10 μl of the spray liquids which amounts to 500 μg of test substance were then applied on two different substrates. An inert wettable synthetic substrates and non-permeable leaf cuticles were used as substrates. […] After evaporation of drop water, the substrates were weighed to obtain the initial weight and placed under a sealed box with defined air suction output volume of 30 m^3/h. The volatility has been determined after the desired measurement time of 4 h, 24 h and 48 h by weighing of the substrates to obtain the remaining weight of the test substances. The fraction of remaining test substance in % is obtained by the ratio of remaining test substance compared to the initial weight of test substance. The volatilized amount was calculated by subtraction of the remaining test substance of the initial applied amount. The volatilized fraction of test substance in % is obtained by the ratio of volatilized test substance compared to the initial weight of test substance. A substrate without test substance is used as reference to account for changes in environmental conditions such as humidity. Concentrations used are based on ca. 3% pelargonic acid equivalent

[2] = Volatility from spray deposit on non-permeable leaf cuticles; type: physicochemical; conditions: pelargonic acid 30 g/L, Vorox 130 g/L
Protocol: as §1

[3] = tested on: monocotyledonous and dicotyledonous harmful plants (ABUTH, ALOMY, AMARE, DIGSA, ERICA, LOLPE, SOLNI, VIOAR); test: Greenhouse trials, post emergence herbicidal activity (percent control); type: in vivo; conditions: 5-20% w/v of applied substances, spray volume 500-1000 liters per hectare, broadcast foliar method
Description: Standard post emergence herbicide application procedures were used, as described below, to apply inventive compounds and formulations listed in the tables 1 and 2, as well as the reference materials.
Seed of monocotyledonous and dicotyledonous harmful plants such as Abutilon theophrasti (ABUTH), Alopecurus myosuroides (ALOMY), Amaranthus retroflexus (AMARE), Digitaria Sanguinalis (DIGSA), Erigeron canadensis (ERICA), Lolium perenne (LOLPE), Solanun nigrum (SOLNI), Viola arvensis (VIOAR) were sowed in 18 cm^2 pots. The plants were placed in a greenhouse under controlled environmental conditions, and sub-irrigation. About one week after emergence, seedlings were thinned as needed, including removal of any unhealthy or abnormal plants, to create a uniform series of test pots.
The plants were maintained for the duration of the test in the greenhouse, where they received a mean of 70 μmol m^−2 s^−1 of light per day/night. Temperatures averages about 24° C. during the day and about 20° C. during the night. Plants were sub-irrigated throughout the test to ensure adequate soil moisture levels.
Pots were assigned to different treatment in a randomized experimental design. A set of pots was left untreated as a reference against which effects of the treatments could later be evaluated. Applications of tested formulations were made in a spray cabin model SPK B CT02 designed by CheckTec using the following parameters: • nozzle Lechler LU-120-08, 1000 L/ha, 3 bars, 0.56 m/s • nozzle Lechler LU-120-06, 500 L/ha, 3 bars, 0.7 m/s.
The distance of the nozzle from the plants was between 50 to 53 cms.
After treatment, pots were returned to the greenhouse until ready for evaluation (6 hours after treatment (6HAT), 1 day after treatment (1DAT), and 2 days after treatment (2DAT).
For evaluation of herbicidal effectiveness, all plants in the test were examined by a single technician, who recorded percent control, a visual measurement of the effectiveness of each treatment by comparison with untreated plants. […] The reported % control values represent the average for all replicates of each treatment.

[4] = Spray liquids in water: appearance and stability after 24 h; type: physicochemical; conditions: for Appearance: spray liquid in water, after 24 h
Protocol: The inventive compounds were used to make spray liquids at relevant use concentration. These spray liquids are produced by mixing the various test substances in water, and the appearance and stability of the spray liquid were assessed after 24 h.
The inventive compounds can be used as 100% substances without need for additional additives or formulation aids to obtain stable spray liquids. They are either water soluble and form clear homogeneous spray liquid or self-emulsifying in the spray liquid and form cloudy homogeneous emulsions that are stable over 24 h. […] Stable spray liquids can only be achieved with pelargonic acid when they are formulated with appropriate emulsifiers and other formulation aids like in the commercial benchmark Vorox.

[5] = pH 4, 4 h, test substances 50 g/L
[6] = pH 4, 24 h, test substances 50 g/L
[7] = pH 4, 48 h, test substances 50 g/L

Row | Compound | Volatilized fraction 4 h [1, 5] | Volatilized fraction 24 h [1, 6] | Volatilized fraction 48 h [1, 7] | Volatilized fraction 4 h [2, 5] | Volatilized fraction 24 h [2, 6] | Volatilized fraction 48 h [2, 7] | herbicidal activity against a plurality of the harmful plants [3] | also measured
1 | CCCCCCCCC(=O)OCCOCCOCCOCCOCCOCCOCCOCCOC [A2, Pelargonic acid 8 EO ester methyl ether] | −0.3% | 0.2% | 0.4% | 1.7% | 2.1% | 2.8% | moderately effective to highly effective | Appearance ([4]; amount 0.3 % by wt.): Clear solution; Appearance ([4]; amount 5.0 % by wt.): Clear solution
2 | CCCCCCCCC(=O)OCCOCCOCCOCCOC(C)COCCOCCOC (centres unmarked) [A3, Pelargonic acid 1 PO 6 EO ester methyl ether] |  |  |  |  |  |  | moderately effective to highly effective | 
3 | CCCCCCCCC(=O)OC(C)COCCOCCOC (centres unmarked) [A4, Pelargonic acid 1 PO 2 EO ester methyl ether] |  |  |  |  |  |  | moderately effective to highly effective | herbicidal activity against several, in particular three or more, of the mentioned harmful plants [3]: highly effective
4 | CCCCCCCCCCOCCOCCOCCOCCOCCOC(=O)CCCCCCCC [A9, Pelargonic acid 5 EO ester decyl ether] | 0.3% | 1.2% | 1.9% | 8.6% | 11.7% | 22.8% | moderately effective to highly effective | 
5 | CCCCCCCCC(=O)OCCOCCOCCOCCCCCC [A10, Pelargonic acid 3 EO ester hexyl ether] | 0.9% | 4.4% | 7.2% | 6.2% | 14.7% | 18.9% | moderately effective to highly effective | 
6 | C=CCCCCCCCC(=O)OCCOCCOCCOCCOCCOCCOC [A11, Dec-9-enoic acid 6 EO ester methyl ether] |  |  |  |  |  |  | moderately effective to highly effective | 
7 | CC(CC(=O)O)CC(C)(C)C (centres unmarked) [A13, 3,5,5-trimethylhexanoic acid] |  |  |  |  |  |  | moderately effective to highly effective | 
8 | CCCCCCCCCCC(=O)OCCOCCOCCOCCOCCOCCOC [A15, Undecanoic acid 6 EO ester methyl ether] |  |  |  |  |  |  | moderately effective to highly effective | 
9 | CCCCCCCCC(=O)OCCOCCOCCOCCOCCOCCOCC [A16, Pelargonic acid 6 EO ester ethyl ether] |  |  |  |  |  |  | moderately effective to highly effective | 
10 | CCCCCCCCC(=O)OCCOCCOCCOCCOCCOCCOC(=O)CCCCCCCC [A17, Pelargonic acid 6 EO diester, reference compound] | 0.6% | 1.0% | 1.3% | 0.6% | 1.5% | 0.6% |  | 
11 | CCCCCCCCC(=O)OCCOCCOCCOCCOCCOCCOCCOCCOC(=O)CCCCCCCC [A18, Pelargonic acid 8 EO diester, reference compound] | 0.5% | 0.7% | 0.9% | 0.6% | 1.7% | 4.0% |  | 
12 | CCCCCCCCC(=O)O [Pelargonic acid, reference compound] | 3.9% | 19.1% | 35.2% | 55.7% | 78.9% | 80.6% | moderately effective to highly effective | Volatilized fraction 4 h ([1]; pH 7, 4 h): 7.3%; Volatilized fraction 24 h ([1]; pH 7, 24 h): 21.3%; Volatilized fraction 48 h ([1]; pH 7, 48 h): 27.9%; Volatilized fraction 4 h ([2]; pH 7, 4 h): 29.2%; Volatilized fraction 24 h ([2]; pH 7, 24 h): 33.8%; Volatilized fraction 48 h ([2]; pH 7, 48 h): 35.3%; stability of spray liquid ([4]; 100% substances in water without additional additives or formulation aids): phase separate immediately; Appearance ([4]; amount 0.3 % by wt.): 2 clear phases; Appearance ([4]; amount 5.0 % by wt.): 2 clear phases
13 | C8/C10 fatty acid 4 EO ester methyl ether [A5] |  |  |  |  |  |  | moderately effective to highly effective | 
14 | C8/C10 fatty acid 6 EO ester methyl ether [A6] |  |  |  |  |  |  | moderately effective to highly effective | Appearance ([4]; amount 5.0 % by wt.): Clear solution
15 | C12/C14 fatty acid 3 EO ester methyl ether [A7] |  |  |  |  |  |  | moderately effective to highly effective | 
16 | C12/C14 fatty acid 5 EO ester methyl ether [A8] |  |  |  |  |  |  | moderately effective to highly effective | 
17 | Dodec-9-enoic acid 3 EO ester methyl ether [A12] |  |  |  |  |  |  | moderately effective to highly effective | 
18 | Dodecanoic acid 6 EO ester methyl ether [A14] |  |  |  |  |  |  | moderately effective to highly effective | 
